Results on 7 compounds are retold here after patent EP2845863A1, “Mathanococcus jannaschii protease and its use” (Consejo Superior de Investigaciones Cientificas (CSIC), priority 2013, dated 2015).

Read-outs that look alike come from different tables or passages of the source. Non-standard residues stand in square brackets, D forms with d. Residues, ends and D or L forms follow the SMILES beside them. *: point of attachment. Sta = CC(C)C[C@H](N)[C@@H](O)CC(=O)O; Isovaleryl = CC(C)CC(=O)*

For this experiment, the target named is T1, Methanococcus jannaschii selecase, wild type, SEQ ID No: 1 (Methanocaldococcus jannaschii, UniProt Q58610).
T1 sequence (Q58610 1-110): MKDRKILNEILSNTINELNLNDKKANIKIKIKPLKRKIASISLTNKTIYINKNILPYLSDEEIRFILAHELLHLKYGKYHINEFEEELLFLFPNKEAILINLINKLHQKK
Briefly: Inhibition assay with fluorogenic substrate Abz-E-L-A-Y-F-Y-P-E-K(dnp). The experiment is classed as biochemical. Particulars: for activity at 100 µM: inhibitor 0.1 mM. As to the method: Proteolytic activities were assayed at 37°C in buffer E (50 mM MES, 150 mM NaCl, pH 5.5), buffer F (50 mM HEPES, 150 mM NaCl, pH 7.5) or buffer G (50 mM CHES, 150 mM NaCl, pH 9.5) at a final protein concentration of 50 µg/ml unless otherwise stated.
For inhibition assays, selecase (at 2 µM in buffer F) was incubated for 30 min with different classes of protease inhibitors and the remaining proteolytic activity was then measured using the fluorogenic substrate Ab[…](dnp) at 37°C. Metal substitution assays were performed by removing the pre-existing metal upon purification through dialysis against 10 mM and 1 mM 1,10-phenanthroline and subsequent dialysis against 1 mM and 10 µM chloride or sulfate salt of a set of divalent metals, similarly as described above to obtain fully active protein. Metals tested were zinc, cobalt, magnesium, manganese, calcium, cadmium, copper, and nickel.

Where [1] appears, read: selecase 2 µM in buffer F (50 mM HEPES, 150 mM NaCl, pH 7.5), incubated 30 min with inhibitor, remaining activity at 37°C, no inhibitor = 100, mean of three, SD within ±5, read-out: Relative activity (%).
Setting [2] is: inhibitor 1 mM, selecase 2 µM in buffer F (50 mM HEPES, 150 mM NaCl, pH 7.5), incubated 30 min with inhibitor, remaining activity at 37°C, no inhibitor = 100, mean of three, SD within ±5.
Where [3] appears, read: inhibitor 1 mM, selecase 2 µM in buffer F (50 mM HEPES, 150 mM NaCl, pH 7.5), incubated 30 min with inhibitor, remaining activity at 37°C, no inhibitor = 100, mean of three, SD within ±5, read-out: Relative activity (%).

With `CC(C)C[C@H](NC(=O)[C@H]1O[C@@H]1C(=O)O)C(=O)NCCCCNC(=N)N` [E-64], the activity at 100 µM under setting [1] stood at 98%.

For the compound `CC(C)CC(=O)N[C@H](C(=O)N[C@H](C(=O)N[C@@H](CC(C)C)[C@@H](O)CC(=O)N[C@@H](C)C(=O)N[C@@H](CC(C)C)[C@@H](O)CC(=O)O)C(C)C)C(C)C` [Pepstatin A] (Isovaleryl-VV[Sta]A[Sta]-OH), the activity at 100 µM under setting [1] is 75%.

As for `O=S(=O)(F)Cc1ccccc1` [PMSF], under setting [2], the “Relative activity (%)” value is listed as 82%.

As for `NCCc1ccc(S(=O)(=O)F)cc1` [Pefabloc], the “Relative activity (%)” value under setting [2] is 78%.

Take `O=C(O)CN(CCN(CC(=O)O)CC(=O)O)CC(=O)O` [EDTA]: the activity at 1000 µM (pH 7.5, read-out: Relative activity (%)) came out at 0%.

`N=C(N)c1ccccc1` [Benzamidine]: the activity at 1000 µM under setting [3] turned out to be 66%.

Take `NC(=O)CI` [lodoacetamide]: under setting [3], the activity at 1000 µM was 79%.
